Test results taken from patent US10525044B2, “Treatment for chemotherapy-induced peripheral neuropathy” (priority 2013, dated 2020).
pEC50: −log10 of the molar value. “Also recorded” adds a separate entry of the source.

Assays:
[1] = tested on: ischemic neurodegeneration; details: 0.45 μM; cited from earlier work
[2] = cell-free system, EDTA as positive control; cited from earlier work
[3] = tested on: mixed cortical and striatal neurons; assay: LDH assay (cell membrane integrity) in neuronal cell culture; assay type: cell-based
Procedure: Neuronal Cell Culture. Mixed cortical and striatal neurons fromembryonic day 17 male Sprague-Dawley rats (tissue obtained from NIH) were seeded into poly-D-lysine coated 96-well plates at density of 50,000 cells/well and initially cultured at 37° C., 5% CO2, in neurobasal medium (NB) with B27 supplement (Invitrogen) containing full strength of AOs to obtain highly enriched (95%) neurons. Since AOs, including vitamin E, vitamin E acetate, superoxide dismutase (SOD), catalase (CAT), and GSH, are additives to culture medium, reduction of AO concentration in culture medium provides an approach to determine the level of OS involvement in a neurotoxic process. In our study, the culture medium was replaced at a 50% ratio with NB plus B27 minus AOs twice at days 7 and 9 to set AO concentrations as 50% and 25%, respectively. At 16 days in vitro (d.i.v.), a fraction of the culture medium was harvested for lactate dehydrogenase (LDH) assay, and then AO concentration was reduced to 12.5% and cultured for a further 5 hours prior to ending the experiment.
(§1) Cell Insults and Treatments. Determination of concentration for each anticancer drug in our experiments was based on its reported concentration in human cerebral spinal fluid (CSF) in chemotherapy, literature report of its neurotoxicity in culture, and our preliminary in vitro experimental data. At 13 d.i.v., the neuronal cell cultures were insulted with 100 μM of MTX (M9929, Sigma), 25 μM of 5-FU (F6627, Sigma), or 3.5 μM of CDDP (sc-200896, Santa Cruz) for 3 days in absence or presence of PAN 811.Cl.H2O. For ROS examination, the neurons were insulted with both 100 μM of MTX and 25 μM of 5-FU by 15 d.i.v. PAN-811.Cl.H2O was added to cultures to final concentrations of 1.25, 2.5, 5, and 10 μM at the same time as addition of the anticancer drugs. For cancer cell lines, the cells were insulted by the second day of cell seeding with the same concentration of MTX, 5-FU, or CDDP as used in neuronal culture in the absence or presence of 10 μM PAN-811.Cl.H2O for another 3 days.
(§2) Quantitative Assays and Morphological Assessment. Cell membrane integrity and mitochondrial function of either neurons or cancer cells were measured with LDH and 3-(4,5-dimethylthiazol-2-yl)-5-(3-carboxymethoxyphenyl)-2-(4-sulfophenyl)-2H-tetrazolium [MTS] analyses, respectively. The latter has been used to quantify cell survival. For the LDH assay, a mixture of a 35 μL aliquot of culture supernatant and 17.5 μL of Mixed Substrate, Enzyme and Dye Solutions (Sigma) was incubated at room temperature (RT) for 30 minutes. For the MTS assay, 10 μL of MTS reagent (Promega) was added to a culture well containing neurons in 50 μL of medium. The preparations were incubated at 37° C. for 2 hours. The preparations for both assays were then spectrophotometrically measured at 490 nm using a 96-well plate reader (Mode 550, Bio-Rad). Neuronal cell death was morphologically determined based on the integrity of the cell soma and continuity of neuronal processes. The change in number of cancer cells was judged directly by cell density. Cells were photographed under an inverted phase contrast microscope (IX 70, Olympus) using 10× or 20× objective.
(§3) Data Analysis. Data were generated from 4-6 replicate wells, expressed as mean±standard deviation (SD), and statistically evaluated at a significance level of 1% with one factor ANOVA or Student's t-test by using software VASSARSTATS (http://vassarstats.net/) followed by the Tukey HSD test. Figure symbols are as follows: #, P<0.05, and ##, P<0.01, compared with control; *, P<0.05, and **, P<0.01, compared with the insulted group; §§, P<0.01, compared with PAN-811 treated group by Student's t-test.

[4] = tested on: hydrogen peroxide-induced LDH release; details: cited from earlier work
ribonucleotide reductase = biological target: T1, ribonucleotide reductase (Homo sapiens, UniProt P31350); details: cited from earlier work
T1 sequence (P31350 1-389): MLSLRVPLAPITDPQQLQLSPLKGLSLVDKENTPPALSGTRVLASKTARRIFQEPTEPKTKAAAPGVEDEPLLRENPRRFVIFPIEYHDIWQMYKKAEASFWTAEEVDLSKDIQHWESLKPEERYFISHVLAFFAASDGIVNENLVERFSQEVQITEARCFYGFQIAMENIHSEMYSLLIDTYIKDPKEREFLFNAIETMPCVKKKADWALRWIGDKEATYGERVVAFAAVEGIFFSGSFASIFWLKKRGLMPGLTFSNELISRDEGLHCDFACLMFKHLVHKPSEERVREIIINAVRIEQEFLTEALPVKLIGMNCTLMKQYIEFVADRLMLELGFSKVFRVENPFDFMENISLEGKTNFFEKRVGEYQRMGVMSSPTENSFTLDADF

[5] = tested on: human lung cancer cell line H460; assay: Cell density of H460 cells (phase contrast); assay type: cell-based
Procedure: (§4) Cancer Cell Culture. The mouse liver cancer cell line BNLT3 (gift of Dr. Jack Wands, Brown University) and the human lung cancer cell line H460 (ATCC) were seeded into 96-well plates at a density of 4,000 cells/well and cultured at 37° C., 5% CO2, in DMEM (11965, Gibco) supplemented with 10% fetal bovine serum, 20 mM HEPES, 1 mM sodium pyruvate, and […] gentamycin (all reagents came from Gibco).
as §1, §2

[6] = tested on: staurosporine-induced apoptosis; details: cited from earlier work
[7] = tested on: mouse liver cancer cell line BNLT3; assay: MTS assay in BNLT3 cancer cells; assay type: cell-based
Procedure: as §4, §1, §2, §3

rat, arterial occlusion = details: i.c.v., 50 μg per rat at 1 h after arterial occlusion; cited from earlier work
[8] = tested on: human Alzheimer's disease-derived and age-matched olfactory neuroepithelial cells; details: via suppression of intracellular reactive oxygen species; cited from earlier work
[9] = 3.5 μM CDDP and 10 μM PAN-811, 3 days
[10] = 25 μM 5-FU and 10 μM PAN-811, 3 days
[11] = 100 μM MTX and 10 μM PAN-811, 3 days

For `NC(=S)N/N=C/c1ncccc1N` [PAN-811, 3-aminopyridine-2-carboxaldehyde thiosemicarbazone], the ischemic neurodegeneration [1] is given as “fully blocked”, the “chelation of free calcium” value [2] is given as “as efficiently as EDTA” and the “LDH release in CDDP-insulted cultures” value ([3]; 5 μM PAN-811, 3.5 μM CDDP) is given as “fully blocked”. For the same compound, the “LDH release in 5-FU-insulted cultures” value ([3]; 5 μM PAN-811, 25 μM 5-FU) was “fully blocked”, the “LDH release in MTX-insulted cultures” value ([3]; 5 μM PAN-811, 100 μM MTX) was “fully blocked” and the “MTX/5-FU-elicited LDH increase” value ([3]; 10 μM PAN-811, 100 μM MTX and 25 μM 5-FU) was “fully inhibited”. For the same compound, the “suppression of MTX/5-FU-elicited LDH release, concentration dependence” value ([3]; PAN-811 1.25 to 10 μM, 100 μM MTX and 25 μM 5-FU) was “concentration-dependent suppression”, the “LDH increase caused by each anticancer drug, dose dependence” value ([3]; neurons, MTX 100 μM, 5-FU 25 μM or CDDP 3.5 μM) was “dose-dependently suppressed” and the “suppression of hydrogen peroxide-induced LDH release” value ([4]; 1 μM, vs untreated/H2O2-insulted group) was 78%. For the same compound, the “suppression of hydrogen peroxide-induced LDH release, maximal protection” value ([4]; 10 μM, vs untreated and H2O2-insulted group) was 90%, the pEC50 ([4]; read-out: EC50, protection against hydrogen peroxide-induced LDH release) was about 6.26 and the “ability to inhibit ribonucleotide reductase” value (ribonucleotide reductase) was “inhibit”. The “cell density, cotreatment with CDDP” value [5, 9] was “greatly decreased the cell density”, the “cell density, cotreatment with 5-FU” value [5, 10] was “robustly decreased the cell density” and the “cell density, cotreatment with MTX” value [5, 11] was “robustly decreased the cell density”. The cell density ([5]; each agent alone, 3 days: MTX 100 μM, 5-FU 25 μM, CDDP 3.5 μM, PAN-811 10 μM) was “robustly decreased the cell density; also recorded: greatly decreased the cell density”, the staurosporine-induced apoptosis [6] was “prevents” and the “MTS reading, cotreatment vs PAN-811 alone” value [7, 9] was “did not introduce an extra reduction in MTS reading”. For the same compound, the “inhibition of the effect of MTX, 5-FU, or CDDP on BNLT3 cells” value ([7]; 10 μM PAN-811) was “did not show any inhibition”, the “synergistic effect with each tested anticancer drug on BNLT3 cell growth” value ([7]; 10 μM PAN-811) was “neither did it demonstrate any synergistic effect” and the “MTS reading, cotreatment vs 5-FU alone” value [7, 10] was “caused a further reduction in MTS reading”. For the same compound, the “MTS reading, cotreatment vs MTX alone” value [7, 11] was “did not cause any further reduction in MTS reading”, the “reduction of infarct volume” value (rat, arterial occlusion) was 59% and the “oxidative stress-induced cell death” value [8] was “inhibited”.
